Measurements as given in patent US8791104B2, “1,4-benzodiazepine-2,5-diones with therapeutic properties” (The Regents of the University of Michigan, priority 2005, dated 2014).

Tests used:
ATP synthesis = assay: Cellular ATP synthesis in the presence of compounds; format: cell-based; settings: compounds exposed to cells (FIG. 6)
Procedure: The following four compounds were exposed to cells, and ATP synthesis measured: […]

[1] = molecular target: T1, oligomycin sensitivity conferring protein (OSCP) component of the mitochondrial F1F0-ATPase (Homo sapiens, UniProt P48047); settings: cited from earlier work
T1 sequence (P48047 24-213): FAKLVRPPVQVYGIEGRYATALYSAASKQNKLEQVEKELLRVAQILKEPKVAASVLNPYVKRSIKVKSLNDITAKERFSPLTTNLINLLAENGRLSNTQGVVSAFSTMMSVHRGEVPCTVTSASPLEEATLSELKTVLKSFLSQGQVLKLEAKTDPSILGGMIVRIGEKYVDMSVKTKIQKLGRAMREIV

animal models of lupus = settings: in vivo; cited from earlier work
[2] = system: mitochondrial F1F0-ATPase; settings: cited from earlier work

Structure (SMILES)	inhibition of ATP synthesis (ATP synthesis)	binding to OSCP [1]	activity in animal models of lupus (animal models of lupus)	inhibition of the F1F0-ATPase [2]
CN1C(=O)C(c2ccccc2)NC(c2ccc(O)cc2)c2cc(Cl)ccc21 (stereo not shown)	did inhibit ATP synthesis			
CN1C(=O)C(Cc2ccc3ccccc3c2)N=C(c2ccc(O)cc2)c2cc(Cl)ccc21 (stereo not shown) [Bz-423]		binds to the oligomycin sensitivity conferring protein (OSCP)	potent activity in animal models of lupus	inhibits the enzyme
